In patent US20260286396A1, “AXL KNOCK OUT CAR T CELLS AND METHODS FOR USE THEREOF” (priority 2023, published 2026):

System: CART19 cells
Experiment: RNA sequencing of CART19 cells with Ingenuity pathway analysis (pathways, upstream regulators)
Type: cell-based, human
Conditions: for Expr Log Ratio / Activation Z-Score / Predicted Activation State: 30 nM, 24 hours vs vehicle
Procedure: CART19 cells were isolated using CD4 and CD8 microbeads to […] the JeKo-1 target cells; this isolation step was performed twice to eliminate the possible contamination of JeKo-1 cells. RNA was isolated from the CART19 cells using QIAGEN RNEASY® Plus Mini Kit. RNA was further treated with DNase I (QIAGEN) and purified using RNA Clean & Concentrator (Zymo Research). […] The fastq files were viewed in FastQC to check for quality (Cox et al., Mol Ther., 29 (4): 1529-1540, 2020). After verifying the lack of adapter sequences with FastQC, Cutadapt (Martin, EMBnet, 17:10-12, 2011) was used to filter for reads greater than 32 base pairs. Output files were re-checked for quality using FastQC. The latest human reference genome (GRCh38.p13) was downloaded from NCBI. Genome index files were generated using STAR (Cox et al. 2020, supra, and Dobin et al., Bioinformatics, 29:15-21, 2012). Paired end reads from fastq files were mapped to the genome for each condition. HTSeq was used to generate expression counts for each gene (Cox et al. 2020, supra; and Putri et al., Bioinformatics, 38:2943-2945, 2022). […] The disruption efficiency of the CRISPR/Cas9 GM-CSF knockout was determined using targeted sequencing through PCR and TIDE analysis (software available at tide.nki.nl) as described elsewhere (Sakemura et al. 2021, supra).
RNA sequencing of CART19 cells was then performed. […] Data were analyzed with the use of QIAGEN Ingenuity Pathway Analysis (IPA) (digitalinsights.qiagen.com/IPA; Krämer et al., Bioinformatics 30 (4): 523-530, 2014).

[1] = CART19+JeKo-1, 30 nM TP-0903 vs vehicle, 24 h
[2] = CART19+JeKo-1, 30 nM TP-0903 vs vehicle, 24 h, flag bias
[3] = Upstream Regulator BRD4 (second entry, r376)

`CN1CCN(Cc2ccc(Nc3ncc(Cl)c(Nc4ccccc4S(=O)(=O)N(C)C)n3)cc2)CC1` [TP-0903, Dubermatinib] was tested, and the “upstream regulator SREBF1 Predicted Activation State” value [1] was “inhibited”, the “upstream regulator SREBF2 Activation Z-Score” value [1] was −1.433 and the “upstream regulator SUCNR1 Activation Z-Score” value [1] was 0. The “upstream regulator TEAD3 Activation Z-Score” value [1] was −1.633, the “upstream regulator TERT Activation Z-Score” value [1] was −1.412 and the “upstream regulator TGFB1 Activation Z-Score” value [1] was −1.429. The “upstream regulator TGFB3 Activation Z-Score” value [1] was −0.894, the “upstream regulator TGFBR2 Activation Z-Score” value [1] was 0.658 and the “upstream regulator TLR2 Activation Z-Score” value [1] was −1.417. The “upstream regulator TLR7 Predicted Activation State” value [1] was “inhibited”, the “upstream regulator TNFRSF4 Activation Z-Score” value [1] was −1.098 and the “upstream regulator TNFSF15 Activation Z-Score” value [1] was −0.425. For the same compound, the “upstream regulator TRAF3 Activation Z-Score” value [1] was −0.656, the “upstream regulator TREM1 Activation Z-Score” value [1] was −0.093 and the “upstream regulator VEGF Activation Z-Score” value [1] was −0.81. For the same compound, the “upstream regulator WNT1 Activation Z-Score” value [1] was −1.387, the “upstream regulator YAP1 Activation Z-Score” value [1] was 0.591 and the “upstream regulator COMMD1 Activation Z-Score” value [2] was 2. For the same compound, the “upstream regulator CSF Activation Z-Score” value [2] was −0.816, the “upstream regulator EGLN Activation Z-Score” value [2] was 1.793 and the “upstream regulator IKZF2 Activation Z-Score” value [2] was 0.447. The “upstream regulator MIR-17-5P (AND OTHER MIRNAS W/SEED AAAGUGC) Activation Z-Score” value [2] was 1.449, the “upstream regulator MIR-450A-5P (AND OTHER MIRNAS W/SEED UUUGCGA) Activation Z-Score” value [2] was 2.236 and the “upstream regulator MLXIPL Activation Z-Score” value [2] was −3.101. The “upstream regulator PAF1 Activation Z-Score” value [2] was 0.762, the “upstream regulator TLR7 Activation Z-Score” value [2] was −2 and the “upstream regulator TPH1 Activation Z-Score” value [2] was −1.89. The “Expr Log Ratio” value (Upstream Regulator ADAM8) was −0.008, the “Activation Z-Score” value (Upstream Regulator ADRB) was 1.616 and the “Activation Z-Score” value (Upstream Regulator AHR) was −0.104. For the same compound, the “Expr Log Ratio” value (Upstream Regulator AHR) was −0.083, the “Activation Z-Score” value (Upstream Regulator AKT) was −2.79 and the “Predicted Activation State” value (Upstream Regulator AKT) was “inhibited”. The “Activation Z-Score” value (Upstream Regulator AREG) was −2.287, the “Expr Log Ratio” value (Upstream Regulator AREG) was 1.429 and the “Predicted Activation State” value (Upstream Regulator AREG) was “inhibited”. The “Activation Z-Score” value (Upstream Regulator BHLHE40) was −0.158, the “Expr Log Ratio” value (Upstream Regulator BHLHE40) was 0.043 and the “Expr Log Ratio” value (Upstream Regulator BIRC5) was −0.028. For the same compound, the “Activation Z-Score” value (Upstream Regulator BNIP3L) was −1.463, the “Expr Log Ratio” value (Upstream Regulator BNIP3L) was −0.47 and the “Activation Z-Score” value (Upstream Regulator BRD4 (first entry, r300, no Expr Log Ratio)) was −0.213. For the same compound, the “Activation Z-Score” value [3] was −2.16, the “Expr Log Ratio” value [3] was −0.067 and the “Predicted Activation State” value [3] was “inhibited”. For the same compound, the “Activation Z-Score” value (Upstream Regulator CASP8) was 1.72, the “Expr Log Ratio” value (Upstream Regulator CASP8) was 0.141 and the “Activation Z-Score” value (Upstream Regulator CD3) was −1.272. For the same compound, the “Activation Z-Score” value (Upstream Regulator CD40) was −0.284, the “Expr Log Ratio” value (Upstream Regulator CD40) was −0.283 and the “Activation Z-Score” value (Upstream Regulator CDKN2A) was 0.421. For the same compound, the “Expr Log Ratio” value (Upstream Regulator CDKN2A) was −0.27, the “Activation Z-Score” value (Upstream Regulator CREB1) was −0.611 and the “Expr Log Ratio” value (Upstream Regulator CREB1) was −0.112. The “Activation Z-Score” value (Upstream Regulator CREM) was 0.286, the “Expr Log Ratio” value (Upstream Regulator CREM) was 0.351 and the “Activation Z-Score” value (Upstream Regulator CSF1) was −1.71. The “Expr Log Ratio” value (Upstream Regulator CSF1) was −0.377, the “Activation Z-Score” value (Upstream Regulator CSF2) was −2.255 and the “Expr Log Ratio” value (Upstream Regulator CSF2) was −0.066. For the same compound, the “Predicted Activation State” value (Upstream Regulator CSF2) was “inhibited”, the “Activation Z-Score” value (Upstream Regulator CTNNB1) was −2.082 and the “Expr Log Ratio” value (Upstream Regulator CTNNB1) was −0.154. For the same compound, the “Predicted Activation State” value (Upstream Regulator CTNNB1) was “inhibited”, the “Activation Z-Score” value (Upstream Regulator DDIT4) was −0.816 and the “Expr Log Ratio” value (Upstream Regulator DDIT4) was −0.248. The “Activation Z-Score” value (Upstream Regulator EGF) was −1.744, the “Expr Log Ratio” value (Upstream Regulator EIF2S1) was 0.079 and the “Activation Z-Score” value (Upstream Regulator ELAVL1) was −1.431. The “Expr Log Ratio” value (Upstream Regulator ELAVL1) was 0.045, the “Activation Z-Score” value (Upstream Regulator EPAS1) was −0.365 and the “Expr Log Ratio” value (Upstream Regulator EPAS1) was −0.784. For the same compound, the “Activation Z-Score” value (Upstream Regulator ETS1) was −1.485, the “Expr Log Ratio” value (Upstream Regulator ETS1) was 0.129 and the “Activation Z-Score” value (Upstream Regulator FOXP3) was 1.094. For the same compound, the “Expr Log Ratio” value (Upstream Regulator FOXP3) was −0.21, the “Expr Log Ratio” value (Upstream Regulator GNAQ) was −0.381 and the “Activation Z-Score” value (Upstream Regulator GNAS) was 0.898. For the same compound, the “Expr Log Ratio” value (Upstream Regulator GNAS) was 0.075, the “Activation Z-Score” value (Upstream Regulator HDL-CHOLESTEROL) was 1.89 and the “Activation Z-Score” value (Upstream Regulator HIF1A) was −1.763. For the same compound, the “Expr Log Ratio” value (Upstream Regulator HIF1A) was 0.181, the “Activation Z-Score” value (Upstream Regulator HRAS) was −1.187 and the “Activation Z-Score” value (Upstream Regulator ID2) was 1.609. For the same compound, the “Expr Log Ratio” value (Upstream Regulator ID2) was 0.114, the “Activation Z-Score” value (Upstream Regulator IFN BETA) was −0.892 and the “Activation Z-Score” value (Upstream Regulator IFNG) was −2.044. For the same compound, the “Expr Log Ratio” value (Upstream Regulator IFNG) was −0.559, the “Predicted Activation State” value (Upstream Regulator IFNG) was “inhibited” and the “Activation Z-Score” value (Upstream Regulator IGG) was 1.765. For the same compound, the “Activation Z-Score” value (Upstream Regulator IL1B) was −1.164, the “Expr Log Ratio” value (Upstream Regulator IL1B) was 0.19 and the “Activation Z-Score” value (Upstream Regulator IL2) was −1.669. For the same compound, the “Expr Log Ratio” value (Upstream Regulator IL2) was −0.397, the “Activation Z-Score” value (Upstream Regulator IL3) was −1.125 and the “Expr Log Ratio” value (Upstream Regulator IL3) was −0.843. For the same compound, the “Activation Z-Score” value (Upstream Regulator IL4) was −3.271, the “Expr Log Ratio” value (Upstream Regulator IL4) was −1.068 and the “Predicted Activation State” value (Upstream Regulator IL4) was “inhibited”. For the same compound, the “Activation Z-Score” value (Upstream Regulator IL5) was −1.165, the “Expr Log Ratio” value (Upstream Regulator IL5) was −1.157 and the “Activation Z-Score” value (Upstream Regulator IL6) was −2.441. For the same compound, the “Expr Log Ratio” value (Upstream Regulator IL6) was −1.319, the “Predicted Activation State” value (Upstream Regulator IL6) was “inhibited” and the “Activation Z-Score” value (Upstream Regulator IL13) was −1.489. The “Expr Log Ratio” value (Upstream Regulator IL13) was 0, the “Activation Z-Score” value (Upstream Regulator IL17A) was 0.354 and the “Expr Log Ratio” value (Upstream Regulator IL17A) was −0.356. The “Activation Z-Score” value (Upstream Regulator IL33) was −1.508, the “Activation Z-Score” value (Upstream Regulator IMMUNOGLOBULIN) was 0.465 and the “Expr Log Ratio” value (Upstream Regulator ITGA11) was −0.167. The “Activation Z-Score” value (Upstream Regulator ITGA11, flag bias) was −1 and the “Activation Z-Score” value (Upstream Regulator KLF11) was −2.333.
